The values below come from patent US7691387B2, “Cinnamomi and poria composition, method to prepare same and uses thereof” (Jiangsu Kanion Pharmaceutical Co., Ltd, priority 2000, dated 2010).

Read-outs that look alike come from different tables or passages of the source.

The subject of one data set is ear swelling of mice. Description: Croton oil ear swelling of mice. In kind it is in vivo, Kunming mice. The note with it: 0.025 g/Kg, three days. Here is the method:
Preparation of drug: Put 12.5 g of extract of CCP in 100 ml of normal saline, and mix adequately. The drug concentration is […]. Put 25 g of extract of CCP in 100 ml of normal saline, and mix adequately. The drug concentration is 1 g/ml. Put 50 g of extract of CCP in 100 ml of normal saline, and mix adequately. The drug concentration is 2 g/ml. Put 12.5 g of the Bolus of Cinnamomi & Poria in 100 ml of normal saline, and mix adequately. The drug concentration is […]. Put 25 g of extract in 100 ml of normal saline, and mix adequately. The drug concentration is 1 g/ml. Put 50 g of extract in 100 ml of normal saline, and mix adequately. The drug concentration is 2g/ml. Put 0.1 g of Hydrocortisone in 100 ml of normal saline. The drug concentration is 1 mg/ml. Administer all three preparations (a total of seven different solutions) with 10 ml/kg.
Experimental method: According to their weight, randomly divide fifty male mice into eight groups. Administer different doses of the seven solutions mentioned above for three days and for the control group administer the normal saline of the same volume. After three days of administering the drug, besmear […] croton oil on both sides of every mouse's left ear (compare with right ear). […]

The test system of data set [1] is blood pressure of anaesthetized dog. The note with it: mainline 80-120 mg/kg; cited from earlier work.
For data set [2], the system named is rheumatism, stomachache, other pains, eczema, dermatitis. Particulars: cited from earlier work.
The subject of the next data set is bacillus subtilis. The note with it: cited from earlier work.
The test system of another data set is golden staphylococcus. The note with it: cited from earlier work.
For a further data set, the system named is streptococcus faecalis. Particulars: cited from earlier work.
The conditions of data set [3]: cited from earlier work.
The next data set deals with tinea germ between toes. The note with it: cited from earlier work.
The next data set relates to coliform. Particulars: cited from earlier work.
Data set [4] relates to extra-corporeal platelet aggregation of rabbits. The experiment in a line: Extra-corporeal platelet aggregation of rabbit (ADP). In kind it is cell-based. Particulars: 0.3 Mg/ml.
Data set [5] concerns twisting responses of mice induced by acetic acid. The experiment in a line: Acetic acid twisting experiment. Particulars: positive control, 0.2 g/kg. In kind it is in vivo. Here is the method:
Randomly divide the animals into 5 groups. […] After the drug has been administered on the third day, celio-inject 0.5% acetic acid to the mice in groups. Observe and record the times of twisting of mice within 30 minutes. [formula]

Data set [6] deals with platelet aggregation of rats. The experiment in a line: Platelet aggregation experiments of rats. In kind it is in vivo, Wister rats. Particulars: 0.1 g/kg once. Here is the method: The drug concentration is 0.5 mg/ml. […] The drug concentration is 1 g/ml. […] The drug concentration is 1 g/ml. Experimental process: […] Half an hour after administering the drug on the fifth day, use ether to anaesthetize the rats. […] Administer a 0.1 g/kg aspirin once to the positive control group. Prepare platelet plasma according to the method explained previously. Do the aggregation experiments, and record the conditions of every group.

Consider `C[C@]12CCC(=O)C=C1CC[C@@H]1[C@@H]2[C@@H](O)C[C@@]2(C)[C@H]1CC[C@]2(O)C(=O)CO` [Hydrocortisone], for which the Average swelling degree in the data set with ear swelling of mice amounted to 4.68 ± 3.43.
Regarding `COc1ccc(C(C)=O)c(O)c1` [Paeonol, Ethanone, 1-(2-hydroxy-4-methoxyphenyl)-], in data set [1], the “duration of reduced pressure” value was 10 to 12 min. Moreover, the reduce pressure in data set [1] was 41-61%. For the same compound, the validity rate is listed as 92% in [2] (261 cases with rheumatoid arthritis, lumbago, bellyache, postoperative & cancer pain) and 83% in data set [2] (inject 50˜100 mg, rheumatism, other pains, eczema, dermatitis). The controlling consistency in the data set with bacillus subtilis is 200 µg/mL; with golden staphylococcus it was 500 µg/mL; with streptococcus faecalis, 500 µg/mL; in the data set with tinea germ between toes it was 250 µg/mL; in the data set with coliform, 200 µg/mL. For the same compound, the solubility in water entry in data set [3] was “resolve a little in water”.
Consider `CC(=O)Oc1ccccc1C(=O)O` [Aspirin, Acetylsalicylic acid], for which the “Aggregation(%)” value in data set [4] is listed as 32.94 ± 1.68 %. Further, the “controlling rate of twisting times” value in data set [5] came out at 61.08%. Besides, in data set [6], the Aggregation ratio turned out to be 26.58 ± 10.58.
